Measurements: patent US4755526A, “Method of inhibiting aromatase” (Eli Lilly and Company, priority 1984, dated 1988)
Structures can show the parent of a compound that is named as a salt.

Tests used:
aromatase = target: T1, aromatase (Rattus norvegicus, UniProt P22443); test: Aromatase inhibition in the rat ovarian microsome assay; format: biochemical; conditions: EC50: concentration required to achieve 50% inhibition of aromatase activity, substrate (androstenedione) concentration 0.1 μM
T1 construct: ovarian microsomes are obtained from rats treated with pregnant mares serum gonadotropin; from tissue; host or cells: ovarian microsomes of rats treated with pregnant mares serum gonadotropin
T1 sequence (P22443 1-508): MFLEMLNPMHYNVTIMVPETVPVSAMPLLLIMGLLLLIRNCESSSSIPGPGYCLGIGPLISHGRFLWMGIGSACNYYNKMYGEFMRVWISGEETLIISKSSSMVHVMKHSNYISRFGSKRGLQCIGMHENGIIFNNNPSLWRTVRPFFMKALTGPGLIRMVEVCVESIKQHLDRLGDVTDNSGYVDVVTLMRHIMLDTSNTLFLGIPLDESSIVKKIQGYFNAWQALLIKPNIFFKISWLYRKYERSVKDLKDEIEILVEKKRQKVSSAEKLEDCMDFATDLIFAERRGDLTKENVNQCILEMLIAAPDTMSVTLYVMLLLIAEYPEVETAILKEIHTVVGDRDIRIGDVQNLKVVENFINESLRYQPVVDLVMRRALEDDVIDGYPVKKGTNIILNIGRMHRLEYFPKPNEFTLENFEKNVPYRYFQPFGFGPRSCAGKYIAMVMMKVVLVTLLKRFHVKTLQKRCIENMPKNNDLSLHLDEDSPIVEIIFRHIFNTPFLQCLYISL
Experimental: In this test system, ovarian microsomes are obtained from rats treated with pregnant mares serum gonadotropin. Test compounds are added to reaction vials containing 0.1 μM 4-androstene-3,17-dione, 100,000 dpm 1,2[^3 H]-androstenedione, the microsomes and a NADPH generating system. The concentrations of the inhibitors tested ranged between 0.005 and 10 μM.

estrogen synthesis = test: Estrogen synthesis inhibition in rats (uterine weight and ovarian steroid concentrations); format: in vivo, female Wistar rats; conditions: for Mean Uterine Weight: testosterone propionate-treated rats
Experimental: Test compounds were administered for seven days either daily by gavage in corn oil or as a component of the diet. Control animals received either corn oil or diet without the test compound. Beginning on the fourth day of the test, all animals treated with the test compound and one half of the control animals were given a subcutaneous injection of 1.0 mg of testosterone propionate in corn oil. The remaining control animals received only an equivalent volume of corn oil.
After two hours, the animals were killed by decapitation. Uteri were isolated, trimmed of extraneous connective tissue, and weighed. […] In the control animals treated with testosterone propionate, estrogens produced by aromatization stimulated the uterus resulting in an increase in weight.
The ovarian steroids were extracted with 1.5 ml of 9:1 (v/v) toluene/ethanol to which had been added 25 to 100 mcg each of unlabelled estradiol, estriol, and estrone, and approximately 1000 dpm of [^14 C]-estradiol. The samples were vortexed, centrifuged at 500×g for 10 minutes, and the organic phase was transferred to a conical vial. Two additional extractions were performed on the residue in the same way. The pooled organic extracts were evaporated for subsequent thin-layer chromatography.
Ovarian proteins were precipitated by the addition of 5.0 ml of ethanol to the remaining aqueous phase. After an overnight incubation at 4° C., the samples were centrifuged at 1500×g for 10 minutes. The supernatant was discarded, and the pellet was dissolved in 0.3N potassium hydroxide.
The organic residue from each above extraction was redissolved in 9:1 (v/v) dichloromethane/methanol. The solution of each sample was applied to separate silica gel thin layer chromatography plates which contained a fluorescent indicator. The plates were developed in the first dimension with 160:38:1.5:0.5 (v/v/v/v) dichloromethane/ethyl acetate/methanol/acetic acid to within 3 cm of the top of the plate. After air-drying, the plate was developed in the second dimension with 180:19:1 (v/v/v) dichloromethane/methanol/ammonium hydroxide. The plate was air-dried and viewed under 254 nm UV light.
The visible spots were marked and the plates were sprayed with primulin (0.001% in 4:1 v/v acetone/water) according to the method of Wright, J. Chromatography, 59, 220 (1971) which allowed for the identification of additional steroids under 365 nm UV light. The spots were scraped from the plate using a glass wool plugged Pasteur pipet attached to a vacuum line. The steroids were eluted directly into scintillation vials by the addition of 0.2 ml of dichloromethane followed by two washes each of 2.0 ml of methanol. The organic solvent was evaporated and 10.0 ml of scintillation fluid (Beckman Ready Solv-NA) was added to the vials. Samples were analyzed by liquid scintillation spectrometry. Corrections were made based on the recoveries of the [^14 C]-steroid. Steroid concentrations are expressed as femtomoles per milligram protein.

[1] = 30 ppm in feed (approximately 3 mg/kg/day)
[2] = 300 ppm in feed (approximately 30 mg/kg/day)
[3] = 30 ppm in feed (approximately 3 mg/kg/day), ovaries
[4] = 300 ppm in feed (approximately 30 mg/kg/day), ovaries

| EC50 (aromatase) | Structure (SMILES) | further results |
| --- | --- | --- |
| 96 nM | c1ccc(C(c2ccccc2)(c2cccc3ccccc23)n2ccnc2)cc1 [1-(1-naphthalenyldiphenylmethyl)-1H--imidazole] |  |
| 330 nM | c1ccc2c(Cn3ccnc3)cccc2c1 [1-(1-naphthalenylmethyl)-1H--imidazole hydrochloride] |  |
| 110 nM | c1ccc(C2(n3ccnc3)CCCCCC2)cc1 [1-(1-phenylcycloheptyl)-1H--imidazole] |  |
| 1050 nM | CC(c1ccccc1)n1ccnc1 (centres unmarked) [1-(1-phenylethyl)-1H--imidazole hydrochloride] |  |
| 3500 nM | Clc1ccccc1Cn1ccnc1 [1-(2-chlorobenzyl)imidazole hydrochloride] |  |
| 3600 nM | Clc1cccc(Cn2ccnc2)c1 [1-(3-chlorobenzyl)imidazole] |  |
| > 5000 nM | Clc1ccc(Cn2cncn2)cc1 [1-(4-chlorobenzyl)-1H--1,2,4-triazole] |  |
| 140 nM | Clc1ccc(Cn2ccnc2)cc1 [1-(4-chlorobenzyl)-1H--imidazole] |  |
| 450 nM | Clc1ccc(Cn2ccnc2)cc1 [1-(4-chlorobenzyl)imidazole hydrochloride] |  |
| < 50 nM | C#CC(c1ccc(Cl)cc1)(c1ccc(Cl)cc1)n1ccnc1 [1-[1,1-bis(4-chlorophenyl)-2-propynyl]-1H--imidazole] |  |
| 125 nM | CCCC(c1ccccc1OCc1ccc(Cl)cc1Cl)n1ccnc1 (centres unmarked) [1-[1-(2-[2,4-dichlorobenzyloxy]phenyl)butyl]-1H--imidazole nitrate] |  |
| 2500 nM | CC(c1ccccc1Cl)n1ccnc1 (centres unmarked) [1-[1-(2-chlorophenyl)ethyl]-1H--imidazole hydrochloride] |  |
| < 50 nM | CCOc1ccccc1C(C)n1ccnc1 (centres unmarked) [1-[1-(2-ethoxyphenyl)ethyl]-1H--imidazole nitrate] |  |
| 140 nM | CCOc1ccccc1C(CC)n1ccnc1 (centres unmarked) [1-[1-(2-ethoxyphenyl)propyl]-1H--imidazole nitrate] |  |
| 410 nM | CC(C)C(c1cccc2ccccc12)n1ccnc1 (centres unmarked) [1-[2-methyl-1-(1-naphthalenyl)propyl]-1H--imidazole nitrate] |  |
| 1650 nM | c1ccc(-c2ccc(Cn3ccnc3)cc2)cc1 [1-[(1,1'-biphenyl)-4-ylmethyl]-1H--imidazole hydrochloride] |  |
| 730 nM | Clc1ccc(Cn2ccnc2)c(Cl)c1 [1-[(2,4-dichlorophenyl)methyl]-1H--imidazole hydrochloride] |  |
| 160 nM | Clc1ccc(Cl)c(Cn2ccnc2)c1 [1-[(2,5-dichlorophenyl)methyl]-1H--imidazole hydrochloride] |  |
| > 5000 nM | Clc1cccc(Cl)c1Cn1ccnc1 [1-[(2,6-dichlorophenyl)methyl]-1H--imidazole hydrochloride] |  |
| 125 nM | Clc1cccc(Cl)c1COc1ccccc1Cn1ccnc1 [1-[(2-[2,6-dichlorobenzyloxy]phenyl)methyl]-1H--imidazole nitrate] |  |
| 86 nM | c1ccc(CCOc2ccccc2Cn2ccnc2)cc1 [1-[(2-[2-phenylethoxy]phenyl)methyl]-1H--imidazole nitrate] |  |
| 1560 nM | CCOc1ccccc1Cn1ccnc1 [1-[(2-ethoxyphenyl)methyl]-1H--imidazole hydrochloride] |  |
| 100 nM | CCOc1ccccc1C(c1ccccc1)n1ccnc1 (centres unmarked) [1-[(2-ethoxyphenyl)phenylmethyl]-1H--imidazole nitrate] |  |
| 2650 nM | Fc1ccccc1Cn1ccnc1 [1-[(2-fluorophenyl)methyl]-1H--imidazole nitrate] |  |
| 2100 nM | COc1ccccc1Cn1ccnc1 [1-[(2-methoxyphenyl)methyl]-1H--imidazole hydrochloride] |  |

| EC50 (aromatase) | Structure (SMILES) | further results |
| --- | --- | --- |
|  | COc1ccccc1C(c1ccccc1)n1ccnc1 (centres unmarked) [1-[(2-methoxyphenyl)phenylmethyl]-1H--imidazole nitrate] | Mean Uterine Weight (estrogen synthesis; [1]): 176.0 mg; Mean Uterine Weight (estrogen synthesis; [2]): 212.6 mg |
| 1500 nM | Cc1ccccc1Cn1ccnc1 [1-[(2-methylphenyl)methyl]-1H--imidazole hydrochloride] |  |
| 3100 nM | O=[N+]([O-])c1ccccc1Cn1ccnc1 [1-[(2-nitrophenyl)methyl]-1H--imidazole hydrochloride] |  |
| 1750 nM | FC(F)(F)c1ccccc1Cn1ccnc1 [1-[(2-trifluoromethylphenyl)methyl]-1H--imidazole hydrochloride] |  |
| 110 nM | Clc1cc(Cl)cc(Cn2ccnc2)c1 [1-[(3,5-dichlorophenyl)methyl]-1H--imidazole hydrochloride] |  |
| 1250 nM | COc1cccc(Cn2ccnc2)c1 [1-[(3-methoxyphenyl)methyl]-1H--imidazole ethanedioate] |  |
| 920 nM | Cc1cccc(Cn2ccnc2)c1 [1-[(3-methylphenyl)methyl]-1H--imidazole ethanedioate] |  |
| 1130 nM | O=[N+]([O-])c1cccc(Cn2ccnc2)c1 [1-[(3-nitrophenyl)methyl]-1H--imidazole hydrochloride] |  |
| 390 nM | FC(F)(F)c1cccc(Cn2ccnc2)c1 [1-[(3-trifluoromethylphenyl)methyl]-1H--imidazole hydrochloride] |  |
| < 50 nM | Fc1ccc(C(c2ccc(Br)cc2)n2cncn2)cc1 (centres unmarked) [1-[(4-bromophenyl)(4-fluorophenyl)methyl]-1H--1,2,4-triazole] |  |
| < 50 nM | Fc1ccc(C(c2ccc(Cl)cc2)n2cncn2)cc1 (centres unmarked) [1-[(4-chlorophenyl)(4-fluorophenyl)methyl]-1H--1,2,4-triazole] |  |
| 69 nM | Clc1ccc(C(c2ccccc2)(c2ccccc2)n2ccnc2)cc1 [1-[(4-chlorophenyl)diphenylmethyl)-1H--imidazole] |  |
| 95 nM | Clc1ccc(C(c2ccccc2)(c2ccccc2)n2cncn2)cc1 [1-[(4-chlorophenyl)diphenylmethyl]-1H--1,2,4-triazole] |  |
| 80 nM | Cc1nccn1C(c1ccccc1)(c1ccccc1)c1ccc(Cl)cc1 [1-[(4-chlorophenyl)diphenylmethyl]-2-methyl-1H--imidazole] |  |
| 630 nM | Fc1ccc(Cn2ccnc2)cc1 [1-[(4-fluorophenyl)methyl]-1H--imidazole nitrate] |  |
| 2500 nM | COc1ccc(Cn2ccnc2)cc1 [1-[(4-methoxyphenyl)methyl]-1H--imidazole hydrochloride] |  |
| 840 nM | Cc1ccc(Cn2ccnc2)cc1 [1-[(4-methylphenyl)methyl]-1H--imidazole hydrochloride] |  |
| 190 nM | FC(F)(F)c1ccc(Cn2ccnc2)cc1 [1-[(4-trifluoromethylphenyl)methyl]-1H--imidazole ethanedioate] |  |
| 110 nM | Clc1ccc(C(c2ccccc2)(c2ccc(Cl)cc2)n2ccnc2)cc1 [1-[bis(4-chlorophenyl)phenylmethyl]-1H--imidazole] |  |
| 94 nM | Cc1nccn1C(c1ccccc1)(c1ccc(Cl)cc1)c1ccc(Cl)cc1 [1-[bis(4-chlorophenyl)phenylmethyl]-2-methyl-1H--imidazole] |  |
| 80 nM | Cc1nccn1C(c1ccccc1)(c1ccc(F)cc1)c1ccc(F)cc1 [1-[bis(4-fluorophenyl)phenylmethyl]-2-methyl-1H--imidazole] |  |
| 240 nM | COc1ccc(C(c2ccccc2)(c2ccc(OC)cc2)n2cncn2)cc1 [1-[bis(4-methoxyphenyl)phenylmethyl]-1H--1,2,4-triazole] |  |
|  | Clc1ccc(C(c2ccc(Cl)cc2)n2cnnc2)cc1 [4-[bis(4-chlorophenyl)methyl]-4H--1,2,4-triazole] | Mean Steroid Concentration, estradiol (estrogen synthesis; [3]): 0.46 femtomoles per milligram of protein; Mean Steroid Concentration, estriol (estrogen synthesis; [3]): 0.60 femtomoles per milligram of protein; Mean Uterine Weight (estrogen synthesis; [1]): 113.3 mg; Mean Steroid Concentration, estradiol (estrogen synthesis; [4]): 0.48 femtomoles per milligram of protein; Mean Steroid Concentration, estriol (estrogen synthesis; [4]): 0.64 femtomoles per milligram of protein; Mean Steroid Concentration, estrone (estrogen synthesis; [4]): 0.10 femtomoles per milligram of protein; Mean Uterine Weight (estrogen synthesis; [2]): 97.3 mg |
|  | Clc1ccc(C(c2ccc(Cl)cc2)(c2cncnc2)n2ccnc2)cc1 [5-[bis(4-chlorophenyl)-1H--imidazol-1-ylmethyl]pyrimidine] | Mean Uterine Weight (estrogen synthesis; [1]): 107.5 mg; Mean Uterine Weight (estrogen synthesis; [2]): 87.6 mg |

| Structure (SMILES) | EC50 (aromatase) | further results |
| --- | --- | --- |
| c1ccc(C2(n3ccnc3)CCCCC2)cc1 [1-(1-phenylcyclohexyl)-1H--imidazole] | 93 nM |  |
| C=C(c1ccccc1OCc1cccc(Cl)c1)n1ccnc1 [1-[1-(2-[(3-chlorophenyl)methoxy]phenyl)ethenyl]-1H--imidazole hydrochloride] | 165 nM |  |
| Clc1ccc(Cn2ccnc2)cc1Cl [1-[(3,4-dichlorophenyl)methyl]-1H--imidazole hydrochloride] | 320 nM |  |
| Clc1ccc(C(c2ccccc2)n2cncn2)cc1 (centres unmarked) [1-[(4-chlorophenyl)phenylmethyl]-1H--1,2,4-triazole] | 150 nM |  |
| Clc1ccccc1C(c1ccccc1Cl)n1cncn1 [1-[bis(2-chlorophenyl)methyl]-1H--1,2,4-triazole] | > 5000 nM |  |
| Clc1ccc(C(c2ccccc2)(c2ccc(Cl)cc2)n2cncn2)cc1 [1-[bis(4-chlorophenyl)phenylmethyl]-1H--1,2,4-triazole] | 110 nM |  |
| Fc1ccc(C(c2ccc(F)cc2)n2cncn2)cc1 [1-[bis(4-fluorophenyl)methyl]-1H--1,2,4-triazole] | 94 nM |  |
| Fc1ccc(C(c2ccccc2)(c2ccc(F)cc2)n2cncn2)cc1 [1-[bis(4-fluorophenyl)phenylmethyl]-1H--1,2,4-triazole] | 80 nM |  |
